≈ marks a conversion by molar mass, not a printed value. Like-named read-outs stand apart in the source and are kept apart here.
Experiments:
[1] = aqueous solubility in pH 7 or pH 4 citrate buffer solution; format: physicochemical
recombinant 15-PGDH = molecular target: T1, recombinant 15-PGDH (Homo sapiens, UniProt P15428); test: IC50 for inhibiting enzymatic activity of recombinant 15-PGDH in an in vitro assay; format: biochemical; settings: recombinant human 15-PGDH at 5 nM, in vitro
T1 sequence (P15428 1-266): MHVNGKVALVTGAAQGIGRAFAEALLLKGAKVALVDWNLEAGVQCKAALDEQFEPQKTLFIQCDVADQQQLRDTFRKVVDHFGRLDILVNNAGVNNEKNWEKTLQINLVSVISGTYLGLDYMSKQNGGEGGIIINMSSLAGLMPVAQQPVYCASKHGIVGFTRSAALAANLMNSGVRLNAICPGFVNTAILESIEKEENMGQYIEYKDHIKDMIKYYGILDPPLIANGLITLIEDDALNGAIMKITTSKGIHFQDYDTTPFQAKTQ

[2] = citrate buffer solution, pH 7, aqueous buffer, pH 7 citrate buffer solution, read-out: pH 7 solubility
[3] = read-out: Enzyme Inhibitor IC50 (nM) at 5 nM 15-PGDH
[4] = Enzyme Inhibitor IC50 (nM) at 5 nM 15-PGDH
[5] = citrate buffer solution, pH 4, aqueous buffer, pH 4 citrate buffer solution, read-out: pH 4 solubility

| solubility [1, 2] [µg/mL] | solubility [1, 5] [µg/mL] | SMILES | further results |
| --- | --- | --- | --- |
| 5.9 (≈ 13.3 µM) | – | CCCC[S+]([O-])c1sc2nc(-c3nccs3)cc(-c3cccc(CO)c3)c2c1N (stereo not shown) [SW 209418] | – |
| 115 (≈ 243 µM) | 1180 (≈ 2490 µM) | CCCC[S+]([O-])c1sc2nc(-c3nccs3)cc(-c3ccc(OCCO)cc3)c2c1N (stereo not shown) [SW 211688] | – |
| 4 (≈ 8.74 µM) | 164 (≈ 358 µM) | CCCC[S+]([O-])c1sc2nc(-c3nccs3)cc(-c3cnc(C4CC4)n3C)c2c1N (single isomer, unassigned) [SW 212345] | – |
| 30.5 (≈ 68.4 µM) | 597 (≈ 1340 µM) | CCCC[S+]([O-])c1sc2nc(-c3nc(C)cs3)cc(-c3cnc(C)n3C)c2c1N (stereo not shown) [SW 217779, 2-(butylsulfinyl)-4-(1,2-dimethyl-1H-imidazol-5-yl)-6-(4-methylthiazol-2-yl)thieno[2,3-b]pyridin-3-amine] | – |
| 3.4 (≈ 8.2 µM) | 3.8 (≈ 9.17 µM) | CCCC[S+]([O-])c1sc2nc(-c3nccs3)cc(-c3cccnc3)c2c1N (stereo not shown) [SW 208777] | – |
| 54.3 (≈ 126 µM) | 241 (≈ 558 µM) | CCCC[S+]([O-])c1sc2nc(-c3nccs3)cc(-c3cnc(C)n3C)c2c1N (stereo not shown) [SW 209415, 2-(butylsulfinyl)-4-(1,2-dimethyl-1H-imidazol-5-yl)-6-(thiazol-2-yl)thieno[2,3-b]pyridin-3-amine] | – |
| – | 31.6 (≈ 75.7 µM) | CCCC[S+]([O-])c1sc2nc(-c3nccs3)cc(-c3nccn3C)c2c1N (stereo not shown) [SW 209125] | – |
| 14 (≈ 33.5 µM) | 71.8 (≈ 172 µM) | CCCC[S+]([O-])c1sc2nc(-c3nccs3)cc(-c3cncn3C)c2c1N (stereo not shown) [SW 217781, 2-(butylsulfinyl)-4-(1-methyl-1H-imidazol-5-yl)-6-(thiazol-2-yl)thieno[2,3-b]pyridin-3-amine] | IC50 (recombinant 15-PGDH; [4]): 1.9 nM |
| 7.4 (≈ 16.2 µM) | – | CCCC[S+]([O-])c1sc2nc(-c3nccs3)cc(-c3ccc(C(C)O)cc3)c2c1N (stereo not shown) [SW 217778, 1-(4-(3-amino-2-(butylsulfinyl)-6-(thiazol-2-yl)thieno[2,3-b]pyridin-4-yl)phenyl)ethan-1-ol] | IC50 (recombinant 15-PGDH; [4]): 2.2 nM |
| 2.6 (≈ 7.42 µM) | – | CCCC[S+]([O-])c1sc2nc(-c3cccs3)cc(C)c2c1N (stereo not shown) [SW 208488] | – |

The remaining lines, values behind:

| SMILES | solubility [1, 2] [µg/mL] | solubility [1, 5] [µg/mL] | further results |
| --- | --- | --- | --- |
| Cc1cc(-c2nccs2)nc2sc([S+]([O-])C(C)C)c(N)c12 (stereo not shown) [SW 208664] | 9.7 (≈ 28.7 µM) | – | IC50 (recombinant 15-PGDH; [3]): 7.62 nM |
| CCCC[S+]([O-])c1sc2nc(-c3nccs3)ccc2c1N (stereo not shown) [SW 206992] | 4.76 (≈ 14.1 µM) | – | – |
| CCCC[S+]([O-])c1sc2nc(-c3ncco3)cc(-c3ccccc3)c2c1N (stereo not shown) [SW 208496] | 2.2 (≈ 5.53 µM) | – | – |
| CCCC[S+]([O-])c1sc2nc(-c3nccs3)cc(-c3ccc(COC(=O)NCCCl)cc3)c2c1N (stereo not shown) [SW 213064, 4-(3-amino-2-(butylsulfinyl)-6-(thiazol-2-yl)thieno[2,3-b]pyridin-4-yl)benzyl (2-chloroethyl)carbamate] | – | – | solubility ([1]; aqueous buffer, pH 7 citrate buffer solution, read-out: pH 7 solubility): 8.27 µg/mL (≈ 15.1 µM); IC50 (recombinant 15-PGDH; [4]): 5.9 nM |
| CC(C)[S+]([O-])c1sc2nc(-c3ncco3)cc(-c3ccccc3)c2c1N (stereo not shown) [SW 208660] | 11.6 (≈ 30.2 µM) | – | IC50 (recombinant 15-PGDH; [3]): 2.86 nM |
| CC(C)[S+]([O-])c1sc2nc(-c3nccs3)cc(-c3ccccc3)c2c1N (stereo not shown) [SW 208780] | 0.65 (≈ 1.63 µM) | – | IC50 (recombinant 15-PGDH; [3]): 5.55 nM |
| CC(C)[S+]([O-])c1sc2nc(-c3nccs3)cc(-c3nccn3C)c2c1N (stereo not shown) [SW 209279] | 37.7 (≈ 93.4 µM) | 73 (≈ 181 µM) | – |
| COCC[S+]([O-])c1sc2nc(-c3nccs3)cc(-c3nccs3)c2c1N (stereo not shown) [SW 213156] | 3.8 (≈ 8.99 µM) | – | IC50 (recombinant 15-PGDH; [4]): 5.7 nM |
| CC(C)[S+]([O-])c1sc2nc(-c3nccs3)cc(-c3cccnc3)c2c1N (stereo not shown) [SW 208778] | 9.9 (≈ 24.7 µM) | 26 (≈ 64.9 µM) | – |
| CCCC[S+]([O-])c1sc2nc(-c3nccs3)cc(-c3ccc(OCCOC(=O)CCC(=O)O)cc3)c2c1N (stereo not shown) [SW 217999, 4-(2-(4-(3-amino-2-(butylsulfinyl)-6-(thiazol-2-yl)thieno[2,3-b]pyridin-4-yl)phenoxy)ethoxy)-4-oxobutanoic acid] | 747 (≈ 1300 µM) | – | IC50 (recombinant 15-PGDH; [4]): 6.2 nM |
| CCCC[S+]([O-])c1sc2nc(-c3nccs3)cc(-c3cnc(C)n3C)c2c1N (single isomer, unassigned; (+)) [(+)-(R)- SW 209415] | – | – | pH 7 solubility (μg/mL) ([1]; pH 7 citrate buffer solution): 2 μg/mL |

From patent US20180118756A1, “COMPOSITIONS AND METHODS OF MODULATING SHORT-CHAIN DEHYDROGENASE ACTIVITY” (CASE WESTERN RESERVE UNIVERSITY, priority 2015, published 2018)
